Reference: BindingDB's records for doi:10.1021/acs.jmedchem.8b01644 (University of Montpellier, 2019)
pEC50: −log10 of the molar value. Positions of bridges follow the written chain, without caps; N, C: chain ends. Non-standard residues stand in square brackets, D forms with d. Residues, ends and D or L forms follow the SMILES beside them. Nle = CCCC[C@H](N)C(=O)O

Experiments:
[1] = Antagonist activity at SNAP-tagged human GHSR expressed in HEK293T cells assessed as reduction in ghrelin-induced inositol phosphate production at 1 uM by measuring ghrelin EC50 after 30 mins by HTRF assay (Rvb = 0.36 +/- 0.01 nM)
[2] = Antagonist activity at human SNAP-tagged GHSR expressed in HEK293T cells assessed as reduction in ghrelin-induced calcium production at 1 uM by measuring ghrelin EC50 after 15 mins by Fluo 4-AM dye-based fluorescence assay (Rvb = 0.41 +/- […])
[3] = Antagonist activity at SNAP-tagged human GHSR expressed in HEK293T cells assessed as reduction in ghrelin-induced inositol phosphate production at 1 uM by measuring ghrelin EC50 after 30 mins by HTRF assay (Rvb = 0.40 +/- 0.05 nM)
[4] = Antagonist activity at human SNAP-tagged GHSR expressed in HEK293T cells assessed as reduction in ghrelin-induced calcium production at 1 uM by measuring ghrelin EC50 after 15 mins by Fluo 4-AM dye-based fluorescence assay (Rvb = 0.34 +/- 0.12 nM)

CC[C@H](C)[C@@H]1NC(=O)[C@@H]2CSSC[C@@H](C(=O)N[C@@H](CO)C(=O)N[C@@H](CC(C)C)C(=O)N[C@@H](CO)C(=O)N[C@H](C(=O)N[C@@H](C)C(=O)N[C@@H](CCC(N)=O)C(=O)N[C@@H](CCC(=O)O)C(=O)O)C(C)C)NC(=O)[C@H](CCCNC(=N)N)NC(=O)[C@H](CCCNC(=N)N)NC(=O)[C@H](CCCCN)NC(=O)[C@H](CCCNC(=N)N)NC(=O)[C@H](CSSC[C@H](NC(=O)[C@H](CO)NC(=O)[C@H](C)NC(=O)CNC(=O)[C@@H](NC(=O)[C@@H]3CCCN3C(=O)[C@H](CCCNC(=N)N)NC(=O)[C@H](CC(C)C)NC(=O)[C@H](CO)NC(=O)[C@@H](NC(=O)CNC(=O)[C@H](CCCNC(=N)N)NC(=O)[C@H](Cc3c[nH]c4ccccc34)NC(=O)[C@H](Cc3ccccc3)NC(=O)[C@@H]3CCCN3C(=O)[C@@H](NC(=O)[C@@H](N)CCSC)[C@@H](C)O)C(C)C)[C@@H](C)CC)C(=O)N[C@@H](CCCNC(=N)N)C(=O)N[C@@H](CC(=O)O)C(=O)N[C@@H](CC(=O)O)C(=O)N[C@@H](CO)C(=O)N[C@@H](CCC(=O)O)C(=O)N2)NC(=O)[C@H](CC(C)C)NC(=O)[C@H](CCCNC(=N)N)NC(=O)[C@H]([C@@H](C)O)NC1=O (H-MTPFWRGVSLRPIGASCRDDSECITRLCRKRRCSLSVAQE-OH; disulfide 17-28, 23-33)
pEC50 [1]: 7.77 | pEC50 [2]: 7.55

CCCC[C@H](N)C(=O)N[C@H](C(=O)N1CCC[C@H]1C(=O)N[C@@H](Cc1ccccc1)C(=O)N[C@@H](Cc1c[nH]c2ccccc12)C(=O)N[C@@H](CCCNC(=N)N)C(=O)NCC(=O)N[C@H](C(=O)N[C@@H](CO)C(=O)N[C@@H](CC(C)C)C(=O)N[C@@H](CCCNC(=N)N)C(=O)N1CCC[C@H]1C(=O)N[C@H](C(=O)NCC(=O)O)[C@@H](C)CC)C(C)C)[C@@H](C)O (H-[Nle]TPFWRGVSLRPIG-OH)
pEC50 [3]: 8.60 | pEC50 [4]: 7.74
